Results from patent publication US20180264088A1, “USE OF CREATINE KINASE AND DERIVED PEPTIDES THEREOF TO RELIEVE PAIN” (CENTRE NATIONAL DE LA RECHERCHE SCIENTIFIQUE, priority 2015, published 2018).

Key:
[1] = system: C57Bl/6J neuropathic mice; assay: Intraperitoneal injection, mechanical nociceptive thresholds of neuropathic (cuffed) mice, von Frey filaments; format: in vivo; details: 10 nmoles; for effect on mechanical thresholds of Sham animals: Sham mice
Method: Experiments were performed on adult male C57Bl/6J mice (6 weeks old, Charles River, L'Arbresle, France). Animals were housed in groups of 5, under standard conditions (room temperature: 22° C.; 12/12-hour light-dark cycle) with ad libitum access to food and water. All experiments were conducted according to the recommendations of the European Committee Council Direction of Sep. 22, 2010 (2010/63/EU).
All surgeries were done under aseptic conditions and ketamine/xylazine anaesthesia (ketamine: 17 mg/ml, xylazine: 2.5 mg/ml, i.p., 4 ml/kg, i.p.; Centravet, Taden, France). The right sciatic nerve was cuffed with a section of polyethylene tubing (cuff group) as previously described [Mosconi et Kruger, Pain, 64(1): 37-57, 1996] [7].
The mechanical threshold for hind paw withdrawal was determined using Von Frey hairs. Mice were placed in clear plexiglass boxes on an elevated mesh screen. Von Frey filaments (Bioseb, Chaville, France) were applied to the plantar surface of each hind paw in a series of ascending forces (0.4 g-15 g). Filaments were tested 5 times per paw, and the mechanical threshold was defined as 3 or more withdrawals out of the 5 trials.

[2] = system: C57Bl/6J mice; assay: Intrathecal injection, mechanical nociceptive thresholds of healthy mice, von Frey filaments; format: in vivo; details: for analgesia (mechanical nociceptive threshold vs control): right leg, two-ways ANOVA
Method: (§1) Experiments were performed on adult male C57Bl/6J mice (6 weeks old, Charles River, L'Arbresle, France). Animals were housed in groups of 3, under standard conditions (room temperature: 22° C.; 12/12-hour light-dark cycle) with ad libitum access to food and water. All experiments were conducted according to the recommendations of the European Committee Council Direction of Sep. 22, 2010 (2010/63/EU).
The functional properties of peptides P1 (20 nmoles) and P4 (10 nmoles) were evaluated through injections in the spinal cord of 4 groups of 6 mice C57B16/J (intrathecal injection, volume of 5 μl). […] Mice were previously placed under gaseous anesthesia with isoflurane (volatile anesthetic agent) with a minimum alveolar concentration (MAC) of 1.34%. A 27-gauge needle connected to a syringe was inserted between the vertebrae L5 and L6, in the subarachnoid space. Isoflurane induced a general anesthesia with respiratory depression in mice.
The mechanical threshold for hind paw withdrawal was determined using Von Frey hairs. Mice were placed in clear plexiglass boxes on an elevated mesh screen. Von Frey filaments (Bioseb, Chaville, France) were applied to the plantar surface of each hind paw in a series of ascending forces (0.4 g-15 g). Filaments were tested 5 times per paw, and the mechanical threshold was defined as 3 or more withdrawals out of the 5 trials. Lithium chloride and naloxone (Sigma-Aldrich, St. Louis, U.S.A.) were diluted in NaCl 0.9% (w/v).

[3] = target: CK-M (Homo sapiens, UniProt P06732); assay: Inhibitory effect of morphine on ATP formation by creatine kinase; format: biochemical; details: ratio 3n/1n (FIG. 2)
[4] = system: cuffed mice C57Bl6/J; assay: Intrathecal injection of AI-25, mechanical nociceptive threshold of cuffed mice; format: in vivo; details: 10 nmoles
Method: (§2) Experiments and surgeries were performed as previously described.
The functional property of peptide AI-25 (10 nmoles) was evaluated through injections in the spinal cord of 8 mice C57B16/J (intrathecal injection, volume 5 μl). The aim was to study the consequences of these injections on mechanical nociceptive threshold of cuffed mice using the […].
(§3) The mechanical threshold for hind paw withdrawal was determined using Von Frey filaments as previously described.

[5] = system: cuffed mice C57Bl6/J; assay: Intrathecal injection of KN-50, mechanical nociceptive threshold of cuffed mice; format: in vivo; details: 33 nmoles, vs saline solution
Method: as §2
The functional property of peptide KN-50 (33 nmoles) and NaCl 0.9% was evaluated through injections in the spinal cord of 8 mice C57B16/J (intrathecal injection, volume 5 μl). The aim was to study the consequences of these injections on mechanical nociceptive threshold of cuffed mice, in comparison of saline solution.
as §3

[6] = ELISA on peptide-coated plate: affinity for morphine; details: ligand 300 μM to 0.1 μM
[7] = system: cuffed rats (neuropathic); assay: Intrathecal injection, cuff neuropathic rat model, calibrated forceps test; format: in vivo; details: 10 nmoles
Method: as §1, with “Wistar at” for “C57Bl/6J mice”, “(2010/63/EU). Procedures were positively evaluated by the regional ethical committee, and experiments were conducted with an official authorization for animal experimentation from the French Department of Agriculture (license 67-116 to P.P.).” for “(2010/63/EU).”
All surgeries were done under aseptic conditions and ketamine/xylazine anaesthesia (ketamine: 17 mg/ml, xylazine: 2.5 mg/ml, i.p., 4 ml/kg, i.p.; Centravet, Taden, France). The right sciatic nerve was cuffed with a section of polyethylene tubing (cuff group) as previously described [Mosconi et Kruger, Pain, 64(1): 37-57, 1996] [7]. Sham-operated mice underwent the same surgical procedure as cuffed animals without implantation of the cuff (sham group).
The functional property of peptide P4 (10 nmoles) was evaluated through injections in the spinal cord of 1 groups of 3 rats (intrathecal injection, volume of 5 μl). The aim was to study the consequences of these injections on mechanic nociceptive threshold of cuffed animals in comparison of the sham group (control), using the calibrated forceps test. Rats were previously placed under gaseous anesthesia with isoflurane (volatile anesthetic agent) with a minimum alveolar concentration (MAC) of 1.34%. A 27-gauge needle connected to a syringe was inserted between the vertebrae L5 and L6, in the subarachnoid space.
The mechanical response was evaluated using digital calibrated forceps (Bioseb, Chaville, France) according to company's recommendations, before and 1 to 6 hours after intrathecal injections.

[8] = neuropathic mice, comparison to baseline
[9] = intrathecal, 10 nmoles, healthy mice
[10] = intrathecal, 20 nmoles, healthy mice

Chain of CK-M (P06732 whole entry, species assumed): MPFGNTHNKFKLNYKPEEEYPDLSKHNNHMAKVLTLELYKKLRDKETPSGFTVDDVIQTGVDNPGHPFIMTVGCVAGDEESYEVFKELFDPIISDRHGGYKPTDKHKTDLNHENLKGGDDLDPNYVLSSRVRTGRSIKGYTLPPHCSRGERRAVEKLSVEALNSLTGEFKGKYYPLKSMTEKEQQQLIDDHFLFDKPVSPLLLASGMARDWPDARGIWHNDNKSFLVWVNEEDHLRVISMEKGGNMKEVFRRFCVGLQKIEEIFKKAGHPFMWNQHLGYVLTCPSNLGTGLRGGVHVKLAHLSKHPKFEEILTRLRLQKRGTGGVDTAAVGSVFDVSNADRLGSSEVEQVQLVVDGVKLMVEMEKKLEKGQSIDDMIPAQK

CN1CC[C@]23c4c5ccc(O)c4O[C@H]2[C@@H](O)C=C[C@H]3[C@H]1C5 [morphine, reference compound]
effect on mechanical thresholds of Sham animals [1]: No significant effect
analgesic effect, ipsilateral paw, at 3 h [1, 8]: significant analgesic effect
analgesia on right leg 4 hours after injection ([2]; intrathecal, 10 nmoles, healthy mice, Holm-Sidak): significant analgesia
analgesia (mechanical nociceptive threshold vs control) [2, 9]: induced a significant analgesia
inhibition of enzymatic activity of CK (production of ATP from phosphocreatine) [3]: ~18%

peptide AI-25: peptide derived from P4, amino acids 214-238 (SEQ ID NO: 4) of mouse creatine kinase B
neuropathic pain, ipsilateral paw mechanical threshold [4]: reversed the neuropathic pain
non-cuffed contralateral paw mechanical threshold [4]: did not significantly affect
neuropathic pain, ipsilateral paw mechanical threshold ([4]; listed as amino acids 214-238): present analgesic activity

peptide KN-50: peptide derived from P4, amino acids 196-246 (SEQ ID NO: 5) of mouse creatine kinase B
neuropathic pain, ipsilateral paw mechanical threshold [5]: reversed the neuropathic pain
non cuffed contralateral paw mechanical threshold [5]: did not affect
neuropathic pain, ipsilateral paw mechanical threshold ([5]; listed as amino acids 196-246): present analgesic activity

peptide P1: peptide consisting of amino acids 1-75 (SEQ ID NO: 2) from the mouse CK-B sequence SEQ ID NO: 1
affinity for morphine [6]: showed an affinity
values of von Frey / sensitivity towards mechanical stimulation [2, 10]: close or equal to cut-off
analgesia (mechanical nociceptive threshold vs control) [2, 10]: induced a significant analgesia
values of von Frey / sensitivity towards mechanical stimulation ([2]; intrathecal, 20 nmoles, healthy mice, listed as amino acids 1-75): almost complete insensitivity
occlusion of analgesic activity by morphine ([2]; peptide 20 nmoles injected in presence of 10 nmoles of morphine): occlusion of analgesic activity

peptide P4: peptide consisting of amino acids 184-258 (SEQ ID NO: 3) of the mouse CK-B sequence SEQ ID NO: 1
affinity for morphine [6]: showed an affinity
effect on mechanical thresholds of Sham animals [1]: No significant effect
basic mechanical nociceptive thresholds of the contralateral hind legs ([1]; neuropathic mice): do not modify
analgesic effect, ipsilateral paw, at 3 h [1, 8]: significant analgesic effect
analgesic effect, ipsilateral paw, at 4 h post injection [1, 8]: significant analgesic effect
values of von Frey / sensitivity towards mechanical stimulation [2, 9]: close or equal to cut-off
analgesia (mechanical nociceptive threshold vs control) [2, 9]: induced a significant analgesia
values of von Frey / sensitivity towards mechanical stimulation ([2]; intrathecal, 10 nmoles, healthy mice, listed as amino acids 184-258): almost complete insensitivity
occlusion of analgesic activity by morphine ([2]; peptide 10 nmoles injected in presence of 10 nmoles of morphine): not observed
neuropathic pain, ipsilateral paw mechanical threshold ([7]; cuffed rats): reverses the neuropathic pain
non-cuffed contralateral paw mechanical threshold ([7]; cuffed rats): did not affect
duration of analgesia ([7]; cuffed rats, ipsilateral paw): at least 6 h
neuropathic pain, ipsilateral paw mechanical threshold ([7]; cuffed rats, listed as peptide 4): reversed the neuropathic pain
mechanical threshold of the sham group ([7]; sham rats): did not affect
